Measurements: patent publication US8293732B2, “Antibacterial quinoline derivatives” (Janssen Pharmaceutica N.V., priority 2006, dated 2012)
In brackets after ≈: the same amount, converted by molar mass.

What was measured:
[1] = tested on: Streptococcus pneumoniae (ATCC6305); assay: In-vitro anti-bacterial microtitre plate assay, IC90 determination (SPN 1 6305); type: cell-based; details: 90% inhibitory concentration for bacterial growth, 37° C., resazurin fluorescence; for IC90 values SPN 1 6305: 24 hours; for IC90: Streptococcus pneumoniae, ATCC6305, 24 h
Experimental: (§1) The bacteria used in this study were grown overnight in flasks containing 100 ml Mueller-Hinton Broth (Becton Dickinson—cat. no. 275730) in sterile de-ionized water, with shaking, at 37° C. Stocks (0.5 ml/tube) were stored at −70° C. until use. Bacteria titrations were performed in microtiter plates to detect the TCID50, in which the TCID50 represents the dilution that gives rise to bacterial growth in 50% of inoculated cultures.
(§2) In general, an inoculum level of approximately 100 TCID50 was used for susceptibility testing.
(§3) Flat-bottom, sterile 96-well plastic microtiter plates were filled with 180 μl of sterile deionized water, supplemented with 0.25% BSA. Subsequently, stock solutions (7.8× final test concentration) of compounds were added in 45 μl volumes in column 2. Serial five-fold dilutions (45 μl in 180 μl) were made directly in the microtiter plates from column 2 to reach column 11. Untreated control samples with (column 1) and without (column 12) inoculum were included in each microtiter plate. Depending on the bacteria type, approximately 10 to 60 CFU per well of bacteria inoculum (100 TCID50), in a volume of 100 μl in 2.8× Mueller-Hinton broth medium, was added to the rows A to H, except column 12. The same volume of broth medium without inoculum was added to column 12 in row A to H. The cultures were incubated at 37° C. for 24 hours under a normal atmosphere (incubator with open air valve and continuous ventilation). At the end of incubation, one day after inoculation, the bacterial growth was quantitated fluorometrically. Therefore resazurin (0.6 mg/ml) was added in a volume of 20 μl to all wells 3 hours after inoculation, and the plates were re-incubated overnight. A change in colour from blue to pink indicated the growth of bacteria. The fluorescence was read in a computer-controlled fluorometer (Cytofluor Biosearch) at an excitation wavelength of 530 nm and an emission wavelength of 590 nm. The % growth inhibition achieved by the compounds was calculated according to standard methods.
(§4) STA 29213 means Staphylococcus aureus (ATCC29213); SPN 6305 means Streptococcus pneumoniae (ATCC6305); MSM 607 means M. Smegmatis (ATCC607); ATCC means […].

[2] = tested on: Staphylococcus aureus (ATCC29213); assay: In-vitro anti-bacterial microtitre plate assay, IC90 determination (STA 1 B29213); type: cell-based; details: 90% inhibitory concentration for bacterial growth, 37° C., resazurin fluorescence; for IC90: Staphylococcus aureus, ATCC29213, 24 h; for IC90 values STA 1 B29213: 24 hours
Experimental: as §1, §2, §3, §4

[3] = tested on: M. Smegmatis (ATCC607); assay: In-vitro anti-bacterial activity against strain M. Smegmatis ATCC607; type: cell-based; details: 90% inhibitory concentration for bacterial growth, 37° C., Alamar Blue fluorescence; for IC90: Mycolicibacterium smegmatis, ATCC607, 48 h, read-out: IC90 values MSM 1 ATCC607; for IC90 values MSM 1 ATCC607: 48 hours
Experimental: Flat-bottom, sterile 96-well plastic microtiter plates were filled with 180 μl of sterile deionized water, supplemented with 0.25% BSA. Subsequently, stock solutions (7.8× final test concentration) of compounds were added in 45 μl volumes to a series of duplicate wells in column 2 so as to allow evaluation of their effects on bacterial growth. Serial five-fold dilutions (45 μl in 180 μl) were made directly in the microtiter plates from column 2 to 11 using a customised robot system (Zymark Corp., Hopkinton, Mass.). Pipette tips were changed after every 3 dilutions to minimize pipetting errors with high hydrophobic compounds. Untreated control samples with (column 1) and without (column 12) inoculum were included in each microtiter plate. Approximately 250 CFU per well of bacteria inoculum, in a volume of 100 μl in 2.8× Mueller-Hinton broth medium, was added to the rows A to H, except column 12. The same volume of broth medium without inoculum was added to column 12 in row A to H. The cultures were incubated at 37° C. for 48 hours in a humidified 5% CO2 atmosphere (incubator with open air valve and continuous ventilation). At the end of incubation, two days after inoculation, the bacterial growth was quantitated fluorometrically. Therefore Alamar Blue (10×) was added to all wells in a volume of 20 μl and plates were incubated for another 2 hours at […]
The fluorescence was read in a computer-controlled fluorometer (Cytofluor, Biosearch) at an excitation wavelength of 530 nm and an emission wavelength of 590 nm (gain 30).
as §4

Row | SMILES | IC90 values SPN 1 6305 [1] [µg/mL] | IC90 [2] [µg/mL] | melting point [°C] | IC90 [3] [µg/mL] | IC90 values STA 1 B29213 [2] [µg/mL] | IC90 values MSM 1 ATCC607 [3] [µg/mL] | IC90 [1] [µg/mL]
1 | COc1nc2ccc(Br)cc2cc1C(c1ccccc1)C(O)(CCCCN(C)C)COc1ccccc1 (single isomer, unassigned) [Compound 1] | 8.9 (≈ 15.8 µM) | 8.9 (≈ 15.8 µM) | 148 | 2.2 (≈ 3.9 µM) | – | – | –
2 | COc1nc2ccc(Br)cc2cc1C(c1ccccc1)C(O)(CCCCN(C)C)COc1ccccc1 (single isomer, unassigned) [Compound 2] | 2.2 (≈ 3.9 µM) | – | 151 | – | 4.5 (≈ 7.99 µM) | 1.8 (≈ 3.19 µM) | –
3 | COc1nc2ccc(Br)cc2cc1C(c1ccc(Cl)cc1)C(O)(CCCCN(C)C)COc1ccccc1 (single isomer, unassigned) [Compound 4] | 2.4 (≈ 4.01 µM) | – | 118 | – | 1.9 (≈ 3.18 µM) | 1.9 (≈ 3.18 µM) | –
4 | COc1nc2ccc(Br)cc2cc1C(c1ccccc1)C(O)(CCCCN(C)C)COc1ccc(C)cc1 (single isomer, unassigned) [Compound 5] | – | – | 146 | 1.8 (≈ 3.12 µM) | 4.1 (≈ 7.1 µM) | – | 4.1 (≈ 7.1 µM)
5 | COc1nc2ccc(Br)cc2cc1C(c1ccccc1)C(O)(CCCCN(C)C)COc1ccc(C)cc1 (single isomer, unassigned) [Compound 6] | 5.2 (≈ 9 µM) | – | 130 | – | 9.2 (≈ 15.9 µM) | 1.8 (≈ 3.12 µM) | –
6 | COc1nc2ccccc2cc1C(c1ccc(-c2cnn(C)c2)cc1)C(O)(CCCCN(C)C)c1ccc2ccccc2c1 (single isomer, unassigned) [Compound 10] | – | 1.9 (≈ 3.25 µM) | 190 | – | – | 0.4 (≈ 0.684 µM) | 1.9 (≈ 3.25 µM)
7 | COc1nc2ccccc2cc1C(c1ccc(-c2ccoc2)cc1)C(O)(CCCCN(C)C)c1ccc2ccccc2c1 (single isomer, unassigned) [Compound 13] | 2.0 (≈ 3.5 µM) | – | 197 | – | 1.8 (≈ 3.15 µM) | 1.3 (≈ 2.28 µM) | –
8 | COc1nc2ccccc2cc1C(c1cccc(-c2cnc3ccccc3c2)c1)C(O)(CCCCN(C)C)c1ccc2ccccc2c1 (single isomer, unassigned) [Compound 16] | – | 2 (≈ 3.17 µM) | 141 | 2 (≈ 3.17 µM) | – | – | 2 (≈ 3.17 µM)
9 | COc1nc2ccc(Br)cc2cc1C(c1ccccc1)C(O)(CCCCN1CCN(C)CC1)COc1ccccc1 (single isomer, unassigned) [Compound 20] | 9.8 (≈ 15.8 µM) | – | 144 | – | 49.1 (≈ 79.4 µM) | 9.8 (≈ 15.8 µM) | –
10 | COc1nc2ccc(Br)cc2cc1C(c1ccc(Cl)cc1)C(O)(CCCCN1CCN(C)CC1)COc1ccccc1 (single isomer, unassigned) [Compound 22] | 11.6 (≈ 17.8 µM) | – | 158 | – | 32.7 (≈ 50.1 µM) | 8.2 (≈ 12.6 µM) | –
11 | COc1nc2ccc(Br)cc2cc1C(c1ccccc1)C(O)(CCCCN1CCN(C)CC1)COc1ccc(C)cc1 (single isomer, unassigned) [Compound 24] | 10.0 (≈ 15.8 µM) | – | 168 | – | 39.9 (≈ 63.1 µM) | 10.0 (≈ 15.8 µM) | –
12 | COc1nc2ccc(Br)cc2cc1C(c1ccccc1)C(O)(CCCCN1CCN(C)CC1)COCc1ccccc1 (single isomer, unassigned) [Compound 28] | 12.6 (≈ 19.9 µM) | – | 122 | – | 10.0 (≈ 15.8 µM) | 4.5 (≈ 7.11 µM) | –
13 | COc1nc2ccc(Br)cc2cc1C(c1ccc2c(c1)OCO2)C(O)(CCN(C)C)c1ccccc1 (single isomer, unassigned) [Compound 29] | 0.4 (≈ 0.728 µM) | – | – | – | 3.1 (≈ 5.64 µM) | 1.7 (≈ 3.09 µM) | –
14 | COc1nc2ccc(Br)cc2cc1C(c1ccc2c(c1)OCO2)C(O)(CCN(C)C)c1ccccc1 (single isomer, unassigned) [Compound 30] | 1.7 (≈ 3.09 µM) | – | 159 | – | 55.0 (≈ 100 µM) | 0.4 (≈ 0.728 µM) | –
15 | COc1nc2ccc(Br)cc2cc1C(c1ccccc1)C(O)(CCCCN(C)C)c1cccc(-c2ccccc2)c1 (single isomer, unassigned) [Compound 31] | 0.86 (≈ 1.41 µM) | 1.93 (≈ 3.17 µM) | – | 1.93 (≈ 3.17 µM) | – | – | –
16 | COc1nc2ccc(Br)cc2cc1C(c1ccccc1)C(O)(CCCCN(C)C)c1cccc(-c2ccccc2)c1 (single isomer, unassigned) [Compound 32] | 1.93 (≈ 3.17 µM) | – | – | – | 1.93 (≈ 3.17 µM) | 0.97 (≈ 1.59 µM) | –
17 | COc1nc2ccc(Br)cc2cc1C(c1ccccc1)C(O)(CCCCN(C)C)c1cccc(-c2ccc(Cl)cc2)c1 (single isomer, unassigned) [Compound 33] | 1.82 (≈ 2.83 µM) | – | – | 2.04 (≈ 3.17 µM) | 2.04 (≈ 3.17 µM) | – | –
18 | COc1nc2ccc(Br)cc2cc1C(c1ccccc1)C(O)(CCCCN(C)C)c1cccc(-c2ccc(Cl)cc2)c1 (single isomer, unassigned) [Compound 34] | 0.72 (≈ 1.12 µM) | – | – | – | 0.91 (≈ 1.41 µM) | 1.29 (≈ 2 µM) | –
19 | COc1ccc(-c2cccc(C(O)(CCCCN(C)C)C(c3ccccc3)c3cc4cc(Br)ccc4nc3OC)c2)cc1 (single isomer, unassigned) [Compound 38] | – | 2.02 (≈ 3.16 µM) | – | – | – | 10.14 (≈ 15.9 µM) | 2.02 (≈ 3.16 µM)
20 | COc1ccc(-c2cccc(C(O)(CCCCN(C)C)C(c3ccccc3)c3cc4cc(Br)ccc4nc3OC)c2)cc1 (single isomer, unassigned) [Compound 39] | 2.02 (≈ 3.16 µM) | – | – | – | 2.02 (≈ 3.16 µM) | 2.02 (≈ 3.16 µM) | –
21 | COc1nc2ccc(Br)cc2cc1C(c1ccccc1)C(O)(CCCCN(C)C)c1cccc(-c2ccc(C)cc2)c1 (single isomer, unassigned) [Compound 40] | – | 1.97 (≈ 3.16 µM) | – | – | – | 7.85 (≈ 12.6 µM) | 1.97 (≈ 3.16 µM)
22 | COc1nc2ccc(Br)cc2cc1C(c1ccccc1)C(O)(CCCCN(C)C)c1cccc(/C=C/c2ccccc2)c1 (single isomer, unassigned) [Compound 41] | 2.01 (≈ 3.16 µM) | 2.01 (≈ 3.16 µM) | – | – | – | 0.40 (≈ 0.629 µM) | –
23 | COc1nc2ccccc2cc1C(c1ccc(-c2ccncc2)cc1)C(O)(CCCCN(C)C)c1ccc2ccccc2c1 (single isomer, unassigned) [Compound 48] | – | – | 210 | – | 1.84 (≈ 3.16 µM) | 1.04 (≈ 1.79 µM) | –
24 | COc1nc2ccc(Br)cc2cc1C(c1ccoc1)C(O)(CCc1ccc(F)cc1)CCN(C)C (single isomer, unassigned) [Compound 53] | – | 8.58 (≈ 15.8 µM) | 122 | 1.71 (≈ 3.16 µM) | – | – | –
25 | COc1nc2ccc(Br)cc2cc1C(c1ccccc1)C(O)(CCCCN(C)C)c1cccc(/C=C/c2ccccc2)c1 (single isomer, unassigned) [Compound 55] | 0.898 (≈ 1.41 µM) | – | – | – | 2.01 (≈ 3.16 µM) | 1.792 (≈ 2.82 µM) | –
